# Experiments:
# [1] = target: T1, human NK-1 receptor (Homo sapiens, UniProt P25103); assay: NK-1 receptor binding (125I-Tyr8-substance P, intact CHO cells); details: CHO cells expressing the human NK-1 receptor
# T1 construct: expressed in transfected cells; host or cells: CHO (Chinese hamster ovary) cells, intact
# Protocol: NK-1 receptor binding assays are performed in intact Chinese hamster ovary (CHO) cells expressing the human NK-1 receptor using a modification of the assay conditions described by Cascieri et al, J. Pharmacol. Exp. Ther., 1992, 42, 458. Typically, the receptor is expressed at a level of 3×10^5 receptors per cell. Cells are grown in monolayer culture, detached from the plate with enzyme-free dissociation solution (Speciality Media Inc.), and washed prior to use in the assay. ^125I-Tyr^8-substance P (0.1 nM, 2000 Ci/mmol; New England Nuclear) is incubated in the presence or absence of test compounds (dissolved in 5 μl dimethylsulphoxide, DMSO) with 5×10^4 CHO cells. Ligand binding is performed in 0.25 ml of 50 mM Tris-HCl, pH 7.5, containing 5 mM MnCl2, 150 mM NaCl, 0.02% bovine serum albumin (Sigma), 50 μg/ml chymostatin (Peninsula), 0.1 nM phenylmethylsulphonyl fluoride, 2 μg/ml pepstatin, 2 μg/ml leupeptin and 2.8 μg/ml furoyl saccharine. The incubation proceeds at room temperature until equilibrium is achieved (>40 minutes) and the receptor-ligand complex is harvested by filtration over GF/C filters pre-soaked in 0.1% polyethylenimine using a Tomtek 96-well harvester. Non-specific binding is determined using excess substance P (1 μM and represents <10% of total binding.
# [2] = system: foot tapping in gerbils induced by central injection of an NK1 agonist; assay: Gerbil foot-tapping induced by central infusion of NK-1 receptor agonist GR73632; assay type: in vivo, Mongolian gerbils; details: i.v.
# Text: ASSAY 2: Gerbil Foot-tapping
# CNS-penetrant NK-1 receptor antagonists for use in the present invention can be identified by their ability to inhibit foot tapping in gerbils induced by anxiogenic agents (such as pentagastrin) or central infusion of NK-1 receptor agonists such as GR73632, or caused by aversive stimulation such as foot shock or single housing, based on the method of Rupniak & Williams, Eur. J. Pharmacol., 1994, 265, 179.
# Male or female Mongolian gerbils (35-70 g) are anaesthetised by inhalation of an isoflurane/oxygen mixture to permit exposure of the jugular vein in order to permit administration of test compounds or vehicle in an injection volume of 5 ml/kg i.v. Alternatively, test compounds may be administered orally or by subcutaneous or intraperitoneal routes. A skin incision is then made in the midline of the scalp to expose the skull. […]
# [3] = system: separation-induced vocalisations by guinea-pig pups; assay: Separation-induced vocalisation in guinea-pig pups; assay type: in vivo; details: p.o.
# Protocol: ASSAY 4: Separation-induced Vocalisation
# On test days each pup receives an oral dose or an s.c. or i.p. injection of test compound or vehicle and is then immediately returned to the home cage with its mother and siblings for 30 to 60 minutes (or for up to 4 hours following an oral dose, dependent upon the oral pharmacokinetics of the test compound) before social isolation for 15 minutes as described above. […] Between 6 and 8 animals receive each test compound at each dose tested.
# T1 sequence (P25103 whole entry): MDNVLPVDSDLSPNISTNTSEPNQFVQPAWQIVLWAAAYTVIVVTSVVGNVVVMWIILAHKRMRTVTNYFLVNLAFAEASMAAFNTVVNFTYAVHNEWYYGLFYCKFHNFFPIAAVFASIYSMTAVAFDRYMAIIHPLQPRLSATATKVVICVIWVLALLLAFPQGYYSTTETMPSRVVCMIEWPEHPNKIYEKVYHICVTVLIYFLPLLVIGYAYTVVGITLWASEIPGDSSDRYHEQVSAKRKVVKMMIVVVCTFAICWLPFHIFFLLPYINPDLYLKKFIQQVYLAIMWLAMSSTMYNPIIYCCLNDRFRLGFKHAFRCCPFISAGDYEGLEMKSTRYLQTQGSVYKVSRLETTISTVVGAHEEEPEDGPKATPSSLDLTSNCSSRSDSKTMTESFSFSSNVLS
SMILES,melting point,IC50 [1],gerbil foot-tapping (5 mins.): ID50 ([2]; 5 mins.),gerbil foot-tapping (24 hrs.): ID60 ([2]; 24 hrs. prior to agonist challenge),guinea-pig vocalisation (4 hr. pre-treatment): ID50 [3]
Cl.FC(F)(F)Oc1ccc(OC2CC2)c([C@H]2CO[C@]3(CCCN[C@H]3c3ccccc3)C2)c1,214 to 216 °C,,,,
"OC[C@@H](O[C@H]1OCCN(Cc2nc[nH]n2)[C@H]1c1ccc(F)cc1)c1cc(C(F)(F)F)cc(C(F)(F)F)c1 [2-(R)-(1-(S)-(3,5-bis(trifluoromethyl)phenyl)-2-hydroxyethoxy)-3-(S)-(4-fluorophenyl)-4-(1,2,4-triazol-3-yl)methylmorpholine]",,0.12 nM,ID50 = 0.38 mg/kg i.v.,ID60 = 2.2 mg/kg i.v.,ID50 = 0.91 mg/kg p.o.

# Source: patent US6613765B1, “Use of NK-1 receptor antagonists for treating major depressive disorders” (Merck Sharp & Dohme Limited, priority 1996, dated 2003)
